Measurements taken from patent publication US20260240842A1, “METHODS TO PREVENT THERAPY RESISTANCE IN MELANOMA VIA BLOCKING GENOMIC INSTABILITY” (THE REGENTS OF THE UNIVERSITY OF CALIFORNIA, priority 2022, published 2026).

System: human BRAF^V600MUT (M229, M249, M395) or NRAS^Q61MUT (M202, M207, M245) melanoma cell lines
Assay: Long-term clonogenic growth: emergence of acquired MAPKi-resistant colonies (DTPPs) in parental melanoma cell lines under MAPKi
Assay type: cell-based
Settings: for efficacy of co-treatment during the second half of the MAPKi treatment course: M229 (day 14-28) and M245 (day 15-30); for suppression of resistance with delayed co-treatment: M229 and M245, 3- to 3.5-week delay in co-treatment, FIGS. 4R and 4S; for sensitivity of M249 parental cell line to resistance suppression: M249, FIG. 4D; for prevention of DTPP formation / suppression of acquired MAPKi resistance: in combination with MAPKi (BRAFi+MEKi or MEKi), parental cell lines, FIG. 4
Procedure: FIGS. 4A-4U. DNA-PKi and/or PARPi co-treatment prevents acquired MAPKi-resistance in human melanoma cell lines. FIGS. 4A to 4O: Long-term clonogenic growth of isogenic parental and acquired MAPKi-resistant BRAF^V600MUT (4A to 4H) or NRAS^Q61MUT (4I to 4O) human melanoma cell lines showing acquired-resistant colonies to BRAFi+MEKi (PLX4032 at 0.5 mM, AZD6244 at 0.5 mM in 4A and 4G; PLX4032 at 0.25 mM, AZD6244 at 0.25 mM in 4D; PLX4032 at 1 mM, AZD6244 at 1 mM in 4B, 4C, 4E, 4F and 4H) or MEKi (trametinib at 0.005 mM in I and 0.01 mM in 4J and 4N; trametinib at 0.1 mM in 4K, 4M and 4O) and their suppression by indicated co-treatments with DNA-PKi (NU7026) and/or PARPi (ABT888) at indicated concentrations. Top, representative cultures; bottom, quantifications over n=4 fields (mean±SD). Data representative of 2 to 4 independent repeats. Seeding densities (cells/well in 6-well dishes) and culture durations (days): (4A) 5,000; 31, (4B) 1,000; 17, (4C) 5,000; 18, (4D) 40,000; 40, (4E) 5,000; 14, (4F) 5,000; 12, (4G) 20,000; 30, (4H) 20,000; 21, (4I) 40,000; 30, (4J) 50,000; 31, (4K) 5,000; 17, (4L) 5,000; 22, (4M) 5,000; 16, (4N) 20.000; 16, and (4O) 5,000; 16. Data representative of 2 to 4 independent repeats. FIGS. 4P and 4Q: Western blot, MTT assay (upper), and clonogenic growth assay (lower) of M245 cells transduced by lentivirus harboring shVector control or shRNAs of PRKDC (4P) or LIG4 (4Q). TUBULIN, loading control. Clonogenic growth with vehicle (14 days, 5,000 cells/well in 6-well dishes) or MEKi (29 days, 50,000 cells/well in 6-well dishes) treatments. MEKi, trametinib at 0.01 μM. Representative results of two independent experiments; quantification of n=4 fields (mean±SD). FIGS. 4R and 4S: As in 4A and 4J, respectively, except DNA-PKi and/or PARPi co-treatments were performed in M229 (4R) and M245 (4S) at a later stage of MAPKi treatment (see timepoint schema). Inhibitor concentrations for M229: BRAFi+MEKi (PLX4032 at 0.5 μM, AZD6244 at 0.5 μM), NU7026 (8 μM), ABT888 (4 μM) and NU7026+ABT888 (4 μM+4 μM). Inhibitor concentrations for M245: MEKi (trametinib at 0.01 μM), NU7026 (5 μM), ABT888 (1 μM) and NU7026+ABT888 (5 μM+1 μM). Left, representative cultures; right, quantifications over n=4 fields (mean±SD). Data representative of 2 independent repeats. FIGS. 4T and 4U: As in 4A and 4J, respectively, except DNA-PKi and/or PARPi co-treatments were performed in M229 (4T) and M245 cells (4U) at the same concentrations in R and S for the entire durations (day 1-28 in 4T; day 1-30 in 4U), the first half (day 1-14 in T; day 1-15 in 4U) or the second half (day 14-28 in 4T: day 15-30 in 4U) of the total treatment course. Top, representative cultures; bottom, quantifications over n=4 fields (mean±SD). Data representative of 2 independent repeats. P values (one-way ANOVA followed by Tukey's multiple comparison test) comparing indicated cultures versus MAPKi-only cultures (4A to 4O and 4R to 4U) or shVector culture (4P and 4Q): *, p<0.05; **, p<0.01: ***, p<0.001.
FIGS. 12A-12F. DNA-PKi and/or PARPi co-treatment prevents acquired MAPKi-resistance in human melanoma cell lines. FIGS. 12A to 12F: Long-term clonogenic growth of BRAF^V600MUT (12A, 12C and 12E) or NRAS^Q61MUT (12B, 12D and 12F) cell lines showing acquired-resistant colonies to BRAFi+MEKi (PLX4032 at 0.5 mM, AZD6244 at 0.5 mM for M229 and M395; PLX4032 at 0.25 mM, AZD6244 at 0.25 mM for M249) or MEKi (trametinib at 0.005 mM for M202 and 0.01 mM for M207 and M245) and their suppression by indicated co-treatments with DNA-PKi (VX984 in 12A and 12B; AZD7648 in 12C and 12D) and/or PARPi (olaparib in 12E and 12F) at indicated concentrations. Top, representative cultures; bottom, quantifications over n=4 fields (mean±SD). Data representative of 2 independent repeats. Seeding densities (cells/well in 6-well dishes) and culture durations (days): M202 (40,000, 30), M207 (20,000, 16), M229 (5,000, 32), M245 (50,000, 31), M249 (40,000, 40), and M395 (20,000, 30). […]

Structure (SMILES)	efficacy of co-treatment during the first half of the MAPKi treatment course (M229 (day 1-14) and M245 (day 1-15), FIGS. 4T and 4U)	efficacy of co-treatment during the second half of the MAPKi treatment course (FIGS. 4T and 4U)	suppression of resistance with delayed co-treatment	sensitivity of M249 parental cell line to resistance suppression	prevention of DTPP formation / suppression of acquired MAPKi resistance	prevention of DTPP formation / suppression of acquired MAPKi resistance (listed as DNA-PKi)
O=c1cc(N2CCOCC2)oc2c1ccc1ccccc12 [NU7026]	remititive	partially remititive	reduced the suppression of resistance	highly sensitive to resistance suppression	synergistically and dose-dependently prevented DTPP formation in all parental cell lines tested	generally more effective than PARPi in preventing acquired resistance
C[C@]1(c2nc3c(C(N)=O)cccc3[nH]2)CCCN1 [ABT888, veliparib]		completely lost	reduced the suppression of resistance	highly sensitive to resistance suppression	activity in 3 of 6 parental cell lines	
